# Laboratory results published in patent US4873243A, “Derivatives of 3-imino-pyridazine, process for obtaining them and pharmaceutical compositions containing them” (SANOFI, priority 1985, dated 1989).
# Where a name gives a salt, the structure may show the parent alone. Read-outs that look alike come from different tables or passages of the source.
# Key:
# [1] = target: GABA post-synaptic receptor; assay: Displacement of tritiated GABA from its post-synaptic receptor (Enna and Snyder method), suspension of synaptic membrane; format: binding; details: in vitro, tritiated GABA 2.9 nM final concentration
# Protocol: The therapeutic activity of the products according to the invention has been studied.
# The study was carried out in accordance with the method of ENNA and SNYDER (Brain Research 100, 81-97, 1975). The experiment was carried out in vitro in the presence of a suspension of synaptic membrane and tritiated GABA at a final concentration of 2.9 nM.
# The results are expressed in Inhibit Concentration 50 (IC50), i.e. the micromolar concentration which inhibits 50% of the fixation of the GABA on its post-synaptic receptor.
# [2] = tested on: reserpine-induced ptosis in the mouse; assay: Antagonism of reserpine-induced ptosis in the mouse; format: in vivo; details: 100 mg/kg intraperitoneal; reserpine 2 mg/kg intravenous at the same time; female mice; one hour after administration
# Protocol: The anti-depressant properties of the products according to the invention have been studied in the animal. The anti-depressant activity was assessed in the test of antagonism of reserpine-induced ptosis in the mouse.
# The study was carried out on batches of 10 female mice weighing 20±1 g. The products to be studied were administered by the intraperitoneal route at the same time as the reserpine by the intravenous route at the dose of 2 mg/kg.
# In parallel, a control batch received only the vehicle of administration of the product to be studied and the reserpine.
# One hour after administration, the animals were observed individually. All the animals of the control batch presented ptosis. For the treated batches, the animals not presenting ptosis were counted and the percentage of the animals where the ptosis was antagonized were determined.
# mouse = assay: Acute toxicity in the mouse; format: in vivo; details: 100 mg/kg intraperitoneal
# Source text: The products according to the invention may be administered by the oral route or by the injectable route.
# [3] = read-out: IC50 (concentration which inhibits 50% of the fixation of the GABA on its post-synaptic receptor)
Structure (SMILES),"IC50 [1, 3] [nM]",further results
N=c1ccc(-c2ccsc2)nn1Cc1cc(O)no1 [SR 95893],1600,–
N=c1ccc(-c2ccc3c(c2)OCO3)nn1Cc1cc(O)no1 [SR 95895],75,–
N=c1c2ccccc2c(-c2ccccc2)nn1Cc1cc(O)no1 [SR 95894],120,–
"Cc1cc(-c2ccccc2)nn(Cc2cc(O)no2)c1=N [SR 95538, 2-[(3-hydroxy 5-isoxazolyl)methyl]-3-imino-4-methyl-6-phenyl-2,3-dihydro-pyridazine, hydrobromide]",1000,animals in which ptosis was antagonized (inhibits ptosis) [2]: 30%; sign of acute toxicity (mouse): no sign of acute toxicity
N=c1ccc(-c2ccccc2)nn1Cc1cc(O)no1 [SR 95812],–,"IC50 ([1]; listed as 95812, read-out: IC50 (concentration which inhibits 50% of the fixation of the GABA on its post-synaptic receptor)): 1200 nM"
Cc1nn(Cc2cc(O)ns2)c(=N)cc1-c1ccccc1 [SR 95886],6600,–
N=c1ccc(-c2ccccc2)nn1Cc1cc(O)no1 [SR 95884],–,"IC50 ([1]; listed as 95884, read-out: IC50 (concentration which inhibits 50% of the fixation of the GABA on its post-synaptic receptor)): 1800 nM"
"N=c1ccc(-c2ccc(Cl)cc2)nn1Cc1cc(O)ns1 [SR 95885, 2-[(3-hydroxy-5-isothiazolyl)methyl]-3-imino-6-(4-chloro-phenyl)-2,3-dihydro-pyridazine, hydrobromide]",150,–
